Experimental data from ChEMBL document CHEMBL5236572, “Bioactive Aurones, Indanones, and Other Hemiindigoid Scaffolds: Medicinal Chemistry and Photopharmacology Perspectives” (J Med Chem, 2022).
Values after ≈ are worked out from the molar mass of the structure shown. Each block holds one compound with its values, some of them ahead of it.

Legend:
[1] = molecular target: Glycogen synthase kinase-3 beta (Homo sapiens, UniProt P49841); test: Inhibition of recombinant GSK-3beta (unknown origin) using GS peptide as substrate in presence of ATP incubated for 1 hrs by ADP-Glo kinase assay
Ehrlich = test: Antitumor activity against mouse Ehrlich ascites carcinoma allografted in Swiss albino mouse assessed as tumor growth inhibition at 20 mg/kg, ip for 12 days; type: functional; conditions: 288 h, time 12 day, read-out: TGI
[2] = test system: Human immunodeficiency virus 1; test: Antiviral activity against HIV-1 infected in human C8166 cells assessed as reduction in virus-induced cytopathic effect by MTT assay; type: functional, organism-based; conditions: Human immunodeficiency virus 1, C8166
MCF7 = test: Antiproliferative activity against human MCF7 cells assessed as reduction in cell viability incubated for 24 hrs by soft agar assay; type: functional, cell-based; conditions: MCF7, 24 h
MDA-MB-231 = test: Antiproliferative activity against human MDA-MB-231 cells assessed as reduction in cell viability incubated for 24 hrs by soft agar assay; type: functional, cell-based; conditions: MDA-MB-231, 24 h
Candida parapsilosis = test: Antifungal activity against Candida parapsilosis assessed as reduction in fungal growth; type: functional; conditions: Lodderomyces parapsilosis
[3] = Inhibition of Saccharomyces cerevisiae full-length ai5gamma intron self-splicing by fluorimetric assay
Tyrosinase [4] = molecular target: T1, Tyrosinase (Agaricus bisporus, UniProt O42713); test: Inhibition of mushroom tyrosinase using L-DOPA as substrate preincubated for 10 mins followed by substrate addition and measured after 1 mins by spectrophotometric analysis
T1 sequence (O42713 whole entry): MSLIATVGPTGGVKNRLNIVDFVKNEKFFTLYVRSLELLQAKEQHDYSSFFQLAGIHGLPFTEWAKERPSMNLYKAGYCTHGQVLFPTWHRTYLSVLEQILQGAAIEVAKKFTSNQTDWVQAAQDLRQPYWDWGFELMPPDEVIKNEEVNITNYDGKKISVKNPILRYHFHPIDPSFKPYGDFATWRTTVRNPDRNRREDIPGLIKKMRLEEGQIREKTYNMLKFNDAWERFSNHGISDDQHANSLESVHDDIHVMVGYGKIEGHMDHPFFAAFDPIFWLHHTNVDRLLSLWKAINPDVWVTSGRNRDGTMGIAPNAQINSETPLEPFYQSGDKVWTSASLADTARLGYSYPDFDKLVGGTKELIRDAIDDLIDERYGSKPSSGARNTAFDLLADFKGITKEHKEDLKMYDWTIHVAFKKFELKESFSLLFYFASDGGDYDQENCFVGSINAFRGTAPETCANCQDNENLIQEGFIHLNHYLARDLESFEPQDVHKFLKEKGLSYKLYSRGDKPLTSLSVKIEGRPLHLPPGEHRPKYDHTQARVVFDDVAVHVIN

[5] = molecular target: Retinoic acid receptor alpha (Homo sapiens, UniProt P10276); test: Antagonist activity at Gal4-RARalpha transfected in HEK293 cells assessed as atRA-induced RARalpha transactivation and measured after 6 hrs by Dual-Light chemiluminiscence assay; type: cell-based
[6] = Selectivity ratio of IC50 for antiproliferative activity against human MES-SA cells to IC50 for antiproliferative activity against doxorubicin resistant human MES-SA/Dx5 cells; type: functional
Tubulin = Tubulin (Bos taurus, UniProt Q6B856+Q862L2+Q862F3); test: Inhibition of bovine brain tubulin polymerization preincubated for 30 mins followed by GTP addition and measured after 20 mins by spectrophotometric analysis
NCI/ADR-RES = test: Antiproliferative activity against multi drug resistant human NCI-ADR-RES cells assessed as inhibition of cell proliferation incubated for 72 hrs by MTT assay; type: functional, cell-based
KB 3-1 = test: Antiproliferative activity against multidrug resistant human KB-3-1 cells assessed as inhibition of cell proliferation incubated for 72 hrs by MTT assay; type: functional, cell-based; conditions: KB 3-1, 72 h
HL60/ADR = test: Antiproliferative activity against drug resistant human HL60/ADR cells assessed as inhibition of cell proliferation incubated for 72 hrs by MTT assay; type: functional, cell-based
[7] = Antiproliferative activity against multidrug resistant human MV522/MDR1 cells assessed as inhibition of cell proliferation incubated for 72 hrs by MTT assay; type: functional, cell-based; conditions: MV522/MDR1, 72 h
[8] = Antiproliferative activity against multidrug resistant human CEM/VLB100 cells assessed as inhibition of cell proliferation incubated for 72 hrs by MTT assay; type: functional, cell-based; conditions: CEM/VLB100, 72 h
MES-SA/Dx5 = test: Antiproliferative activity against multi drug resistant human MES-SA/Dx5 cells assessed as inhibition of cell proliferation incubated for 72 hrs by MTT assay; type: functional, cell-based; conditions: MES-SA/Dx5, 72 h
[9] = Antiproliferative activity against doxorubicin resistant human MDA-MB-231-Dox cells assessed as inhibition of cell proliferation incubated for 72 hrs by MTT assay; type: functional, cell-based
[10] = Antioxidant activity assessed as DPPH radical scavenging activity at 100 uM measured for 20 mins by spectrophotometric analysis; type: functional
[11] = Inhibition of AAPH induced lipid peroxidation; conditions: dose or concentration not given here
[12] = Antioxidant activity assessed as ABTS radical scavenging activity at 100 uM incubated for 12 to 16 hrs in dark; type: functional; conditions: time 12-16 hrs
[13] = Antioxidant activity assessed as DPPH radical scavenging activity at 100 uM measured for 60 mins by spectrophotometric analysis; type: functional
[14] = molecular target: Serine/threonine-protein kinase AKT (Homo sapiens, UniProt P31751+Q9Y243+P31749); test: Inhibition of AKT (unknown origin); type: protein assay
Tyrosinase [15] = molecular target: T1, Tyrosinase; test: Inhibition of mushroom tyrosinase using L-tyrosine as substrate incubated for 30 mins by spectrophotometric analysis

Glycogen synthase kinase-3 beta, sequence (P49841 whole entry): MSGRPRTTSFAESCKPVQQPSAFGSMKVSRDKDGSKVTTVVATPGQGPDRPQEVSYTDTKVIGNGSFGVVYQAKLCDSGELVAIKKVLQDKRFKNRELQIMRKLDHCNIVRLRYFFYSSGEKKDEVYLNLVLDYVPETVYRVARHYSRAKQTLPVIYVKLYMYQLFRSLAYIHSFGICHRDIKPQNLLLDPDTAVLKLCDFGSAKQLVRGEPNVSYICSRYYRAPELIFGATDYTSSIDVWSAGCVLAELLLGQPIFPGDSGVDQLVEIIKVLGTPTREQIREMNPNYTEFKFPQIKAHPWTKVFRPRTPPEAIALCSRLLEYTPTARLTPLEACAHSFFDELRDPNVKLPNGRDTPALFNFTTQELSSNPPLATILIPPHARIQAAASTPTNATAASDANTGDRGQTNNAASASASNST
Retinoic acid receptor alpha, sequence (P10276 whole entry, the tested form may be a part): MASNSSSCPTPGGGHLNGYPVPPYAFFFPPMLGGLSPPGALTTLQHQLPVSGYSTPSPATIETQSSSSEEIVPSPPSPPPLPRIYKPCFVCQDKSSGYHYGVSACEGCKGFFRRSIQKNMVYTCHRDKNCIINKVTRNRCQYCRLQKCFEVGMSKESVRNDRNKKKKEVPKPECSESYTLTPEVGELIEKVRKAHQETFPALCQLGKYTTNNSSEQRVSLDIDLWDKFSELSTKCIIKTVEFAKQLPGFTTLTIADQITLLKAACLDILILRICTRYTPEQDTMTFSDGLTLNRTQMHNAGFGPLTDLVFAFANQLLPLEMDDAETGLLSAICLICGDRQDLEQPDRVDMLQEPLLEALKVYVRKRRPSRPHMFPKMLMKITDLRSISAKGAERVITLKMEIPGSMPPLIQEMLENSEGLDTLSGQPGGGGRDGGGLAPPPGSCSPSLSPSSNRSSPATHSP

- MIC (Candida parapsilosis): 53 µM (≈ 14.3 µg/mL)
- Ki [3]: 2100 nM
SMILES: O=C1/C(=C/c2cc(O)c(O)c(O)c2)Oc2ccccc21

- MIC (Candida parapsilosis): 30 µM (≈ 9.07 µg/mL)
- Ki [3]: 5800 nM
SMILES: O=C1/C(=C/c2cc(O)c(O)c(O)c2)Oc2cc(O)cc(O)c21

- IC50 (Tyrosinase [4]): 8120 nM
SMILES: CN(C)c1ccc(/C=C2\Cc3ccccc3C2=O)c([N+](=O)[O-])c1

- IC50 (Tubulin): 1700 nM
- IC50 (KB 3-1): 2 nM
- IC50 (HL60/ADR): 2 nM
SMILES: COc1cc2c(c(N)c1OC)C(=O)/C(=C/c1cc(C)c(O)c(C)c1)C2
- IC50 (NCI/ADR-RES): 2 nM
- IC50 [7]: 2 nM
- IC50 [8]: 2 nM
- IC50 (MES-SA/Dx5): 2 nM
- IC50 [9]: 2 nM

- IC50 [14]: 207 nM
SMILES: Cc1ccc(C)c2c1C/C(=C\c1ccccc1)C2=O

- IC50 (Tyrosinase [15]): 150 nM
SMILES: O=C1/C(=C/c2ccc(O)cc2O)Cc2ccc3ccccc3c21

The remaining lines, values behind:

SMILES: CN(Cc1ccccc1)Cc1c(O)ccc2c1O/C(=C\c1ccc3c(c1)OCO3)C2=O
- IC50 [1]: 310 nM

SMILES: COc1cc(C2/C(=C/c3ccc4c(c3)OCO4)C(=O)c3cc(OC)c(OC)c(OC)c32)cc(OC)c1OC (stereo unspecified)
- inhibition in vivo at 20 mg/kg (Ehrlich): 45.5%

SMILES: O=C1/C(=C/c2ccc(O)c(O)c2)Oc2c1ccc(O)c2O
- EC50 [2]: 12000 nM

SMILES: COc1cc(C2/C(=C/c3ccc(F)cc3)C(=O)c3cc(OC)c(OC)c(OC)c32)cc(OC)c1OC (stereo unspecified)
- IC50 (MCF7): 27000 nM
- IC50 (MDA-MB-231): 27000 nM

SMILES: COCCOCOc1cc2c(cc1C13CC4CC(CC(C4)C1)C3)C(=O)/C(=C/c1ccc(C(=O)O)cc1)O2
- IC50 [5]: 4420 nM

SMILES: CCCCc1ccc(/C=C2\Nc3cc(OC)cc(OC)c3C2=O)cc1
- Ratio IC50 [6]: 4.8

SMILES: O=C1/C(=C/c2ccc(O)c(O)c2)Oc2cc(O)ccc21
- Activity [10]: 89%
- inhibition [11]: 53%
- Activity [12]: 71%
- Activity [13]: 89%
